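Method: 48-hour compound exposure of cells in 96-well plates, five concentrations, linear interpolation of endpoints. The concentration for 50% growth inhibition is given as GI50.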 Activity calls are given as the source filed them. Rule as the data show it: active = GI50 up to about 1.1 µM and inactive = higher.
Columns and labels:
Test in all cases: NCI-60 cell line screen, 48 h
MDA-MB-435 = test system: MDA-MB-435
SF-295 = test system: SF-295
M14 = test system: M14
HCC 2998 = test system: HCC 2998
CAKI-1 = test system: CAKI-1
T47D = test system: T47D
BT-549 = test system: BT-549
UO-31 = test system: UO-31
HCT-116 = test system: HCT-116
NCI-H460 = test system: NCI-H460
SK-MEL-5 = test system: SK-MEL-5
OVCAR-4 = test system: OVCAR-4
MDA-MB-231 = test system: MDA-MB-231
EKVX = test system: EKVX
PC-3 = test system: PC-3
SR = test system: SR
MDA-N = test system: MDA-N
Hs-578T = test system: Hs-578T
A549 = test system: A549

SMILES | GI50 (MDA-MB-435) | GI50 (SF-295) | GI50 (M14) | GI50 (HCC 2998) | GI50 (CAKI-1) | GI50 (T47D) | GI50 (BT-549) | GI50 (UO-31) | GI50 (HCT-116) | GI50 (NCI-H460) | GI50 (SK-MEL-5) | GI50 (OVCAR-4) | GI50 (MDA-MB-231) | GI50 (EKVX) | GI50 (PC-3) | GI50 (SR) | GI50 (MDA-N) | GI50 (Hs-578T) | GI50 (A549)
O=C(c1ccccc1)c1c(-c2ccccc2)[nH]n(-c2ccc([N+](=O)[O-])cc2)c(=O)c1=O | 75.2 µM (inactive) | 46.8 µM (inactive) | > 100 µM (inactive) | 64.7 µM (inactive) | 87.3 µM (inactive) | 81.8 µM (inactive) | 27.6 µM (inactive) | 32.1 µM (inactive) | 53.2 µM (inactive) | 37.2 µM (inactive) | > 100 µM (inactive) | 25.8 µM (inactive) | 30.1 µM (inactive) | 91 µM (inactive) | 42.9 µM (inactive) | 35.5 µM (inactive) | > 100 µM (inactive) | 0.504 µM (active) | 38.5 µM (inactive)
COC(=O)/C=C1/OC(c2ccccc2)=CC1=O | 18.3 µM (inactive) | 14.2 µM (inactive) | 23.3 µM (inactive) | 18.2 µM (inactive) | 19.4 µM (inactive) | 20.9 µM (inactive) | 17.7 µM (inactive) | 17.8 µM (inactive) | 15.9 µM (inactive) | 19.7 µM (inactive) | 19.9 µM (inactive) | 16.4 µM (inactive) | 17 µM (inactive) | 17.9 µM (inactive) | 20.4 µM (inactive) | > 23.4 µM (inactive) | 17.3 µM (inactive) | 22.9 µM (inactive) | 29 µM (inactive)
ON(CCc1ccccn1)Cc1ccccc1 | > 100 µM (inactive) | > 100 µM (inactive) | > 100 µM (inactive) | > 100 µM (inactive) | > 100 µM (inactive) | > 100 µM (inactive) | > 100 µM (inactive) | > 100 µM (inactive) | > 100 µM (inactive) | > 100 µM (inactive) | > 100 µM (inactive) | > 100 µM (inactive) | > 100 µM (inactive) | > 100 µM (inactive) | > 100 µM (inactive) | > 100 µM (inactive) | > 100 µM (inactive) | > 100 µM (inactive) | > 100 µM (inactive)
CCCN(CCC)C(=S)N/N=C(/C)c1ccccc1O | 8.38 µM (inactive) | 6.41 µM (inactive) | 2.94 µM (inactive) | 10.3 µM (inactive) | 8.49 µM (inactive) | 3.61 µM (inactive) | 5.25 µM (inactive) | 4.11 µM (inactive) | 4.04 µM (inactive) | 2.51 µM (inactive) | 5.81 µM (inactive) | 5.96 µM (inactive) | 9.4 µM (inactive) | 6.31 µM (inactive) | 5.94 µM (inactive) | 3.06 µM (inactive) | 9.77 µM (inactive) | > 70 µM (inactive) | 5.64 µM (inactive)
CC1(C)N=C(N)N=C(N)N1c1ccc(CCCCc2ccc(S(=O)(=O)F)cc2Cl)c(Cl)c1 | 3.95 µM (inactive) | 1.84 µM (inactive) | 1.63 µM (inactive) | 5.04 µM (inactive) | 9.55 µM (inactive) | 10.5 µM (inactive) | 5.26 µM (inactive) | 36.1 µM (inactive) | 1.03 µM (active) | 0.266 µM (active) | 1.05 µM (active) | 37.2 µM (inactive) | 10.5 µM (inactive) | 36.2 µM (inactive) | 1.11 µM (active) | 0.207 µM (active) | 0.916 µM (active) | 74 µM (inactive) | 0.706 µM (active)
CC1=C(C(=O)NC2CCCCC2)CC(C(=O)NC2CCCCC2)=C(C)N1 | > 100 µM (inactive) | > 100 µM (inactive) | > 100 µM (inactive) | > 100 µM (inactive) | > 100 µM (inactive) | 58.6 µM (inactive) | > 100 µM (inactive) | > 100 µM (inactive) | > 100 µM (inactive) | > 100 µM (inactive) | > 100 µM (inactive) | > 100 µM (inactive) | > 100 µM (inactive) | > 100 µM (inactive) | 77.4 µM (inactive) | > 100 µM (inactive) | > 100 µM (inactive) | 24.9 µM (inactive) | > 100 µM (inactive)
